One assay addresses T1, hiNOS (Homo sapiens, UniProt P35228).
T1 construct: expressed in transfected cells; host or cells: HEK293
The assay can be described thus: DAN assay, hiNOS expressed in transiently transfected HEK293 cells. The class given is cell-based. Particulars: HEK293 cells transiently transfected with hiNOS. The essentials: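 Human iNOS, nNOS or eNOS transiently expressed in HEK293 cells, with nNOS and eNOS needing added cofactors for activity. NO production is read as nitrite by fluorometry: 2,3-diaminonaphthalene forms fluorescent […], detecting 10 nM to 10 μM nitrite.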

The next assay has as its system rat. The assay can be described thus: Capsaicin test (topical capsaicin allodynia). The class given is in vivo. The text has this: Subcutaneous injection of dilute capsaicin into the rat hind paw produces transient but pronounced hyperalgesia, allodynia and pain. This effect may be mitigated by pretreatment with a suitable agent, such as a topical anaesthetic or analgesic, and the extent of this mitigation quantified by evaluation of pain-related behaviors in response to noxious or innocuous stimuli as described above; rats pretreated with a known analgesic display fewer pain and allodynia related behaviors than controls. Compounds may be evaluated for their efficacy as potential analgesics in this manner as well.
Male Lewis rats weighing between 180 and 250 grams are used. The right hind paw is dipped into vehicle (100% acetone) or compound in vehicle for 30 seconds and then allowed to air-dry for 30 sec. To prevent the animal from licking the compound off the paw, the paw is wiped twice with a wet paper towel. At 15 min after application of vehicle or compound, 0.1 mg in 10 μL capsaicin is injected into right hind paw. Measurement of allodynia is performed 0.5 to 1 hour after capsaicin injection.
One procedure for quantifying allodynia measures the rat behavioral response to presentation of von Frey filaments of increasing diameter. Each rat is placed in a small, clear cage on an elevated screen. Beginning with 4.31, the von Frey hair is presented perpendicularly to the right mid-plantar hind paw with sufficient force to cause slight buckling, for 6-8 seconds. If presentation lifts the hind paw it is disregarded, as it changes the nature of the stimulus. A positive response is noted if the paw is sharply withdrawn upon onset or offset of stimulus. Ambulation is considered an ambiguous response and the presentation is repeated. Stimuli are presented in a consecutive fashion. A positive response would call for the presentation of the immediately weaker weight filament next; likewise, no response would call for the immediately stronger. Presentations continue until a series of six consecutive responses from the first change is logged. The next rat is then tested. This procedure is standard in the art for the measurement of allodynia, but any other method known in the art which provides adequate sensitivity and reproducibility may be substituted.

The mark [1] stands for this setting: at 0.5 hr after capsaicin injection.
[2] abbreviates: at 1 hr after capsaicin injection.

Where a name gives a salt, the structure may show the parent alone.

A word on the EC50: it is the concentration at which the effect is half-maximal.

In the case of `CN(CCCNCc1ccccc1)c1nc(-n2ccnc2)ns1` [Example 12, N′-Benzyl-N-(3-imidazol-1-yl-[1,2,4]thiadiazol-5-yl)-N-methyl-propane-1,3-diamine], the EC50 on hiNOS was over 50000 nM. The results for the “Topical Capsaicin Allodynia” value with rat (setting [1]) and in the assay on rat (setting [2]) were “− at 0.5 hr ((−) = <15% inhibition)” and “− at 1 hr ((−) = <15% inhibition)”, respectively. With `Cc1cc(CNC(=O)NCCc2ccc3c(c2)OCO3)nc(-n2ccnc2)n1` [Example 13, 1-(2-Benzo[1,3]dioxol-5-yl-ethyl)-3-(2-imidazol-1-yl-6-methyl-pyrimidin-4-ylmethyl)-urea], the EC50 at hiNOS was under 1000 nM. Besides, the “Topical Capsaicin Allodynia” value in the assay on rat (setting [1]) is given as “− at 0.5 hr ((−) = <15% inhibition)”; with rat (setting [2]), “+ at 1 hr ((+) = >15% inhibition)”. `O=C(NCCc1ccc2c(c1)OCO2)[C@H]1C[C@@H](O)CN1c1nc(-n2ccnc2)ns1` [Example 28, (2R,4R)-4-Hydroxy-1-(3-imidazol-1-yl-[1,2,4]thiadiazol-5-yl)-pyrrolidine-2-carboxylic acid (2-benzo[1,3]dioxol-5-yl-ethyl)-amide]: the EC50 on hiNOS was under 1000 nM. The “Topical Capsaicin Allodynia” value was “+ at 0.5 hr ((+) = >15% inhibition)” with rat (setting [1]) and “+ at 1 hr ((+) = >15% inhibition)” in the assay on rat (setting [2]). As for `O=C(NCCc1ccc2c(c1)OCO2)[C@H]1CCCN1c1nc(-n2ccnc2)ns1` [Example 29, (R)-1-(3-Imidazol-1-yl-[1,2,4]thiadiazol-5-yl)pyrrolidine-2-carboxylic acid (2-benzo[1,3]dioxol-5-yl-ethyl)-amide], the EC50 on hiNOS is under 1000 nM. Further, the “Topical Capsaicin Allodynia” value in the assay on rat (setting [1]) is recorded as “− at 0.5 hr ((−) = <15% inhibition)”; in the assay with rat (setting [2]), “+ at 1 hr ((+) = >15% inhibition)”. On to `Cc1cc(C(C)NCCNCc2ccc3c(c2)OCO3)nc(-n2ccnc2)n1` (stereo not shown) [Example 38, N-Benzo[1,3]dioxol-5-ylmethyl-N′-[1-(2-imidazol-1-yl-6-methyl-pyrimidin-4-yl)-ethyl]-ethane-1,2-diamine], for which the EC50 at hiNOS was under 1000 nM. The “Topical Capsaicin Allodynia” value with rat (setting [1]) is given as “+ at 0.5 hr ((+) = >15% inhibition)”; in the assay with rat (setting [2]), “+ at 1 hr ((+) = >15% inhibition)”.

`c1cn(-c2nsc(N(CCCNCc3ccc4c(c3)OCO4)Cc3nccs3)n2)cn1` [Example 49, N′-Benzo[1,3]dioxol-5-ylmethyl-N-(3-imidazol-1-yl-[1,2,4]thiadiazol-5-yl)-N-thiazol-2-ylmethyl-propane-1,3-diamine] gave an EC50 at hiNOS of under 1000 nM. The “Topical Capsaicin Allodynia” value in the assay on rat (setting [1]) is listed as “+ at 0.5 hr ((+) = >15% inhibition)”; with rat (setting [2]), “+ at 1 hr ((+) = >15% inhibition)”. As to `c1csc(CN(CCCNCc2ccc3c(c2)OCO3)c2nc(-n3ccnc3)ns2)c1` [Example 50, N′-Benzo[1,3]dioxol-5-ylmethyl-N-(3-imidazol-1-yl-[1,2,4]thiadiazol-5-yl)-N-thiophen-2-ylmethyl-propane-1,3-diamine], the figures for the “Topical Capsaicin Allodynia” value with rat (setting [1]) and in the assay on rat (setting [2]) were “+ at 0.5 hr ((+) = >15% inhibition)” and “+ at 1 hr ((+) = >15% inhibition)”, respectively. In turn, `CN(CCCN(CC(N)=O)c1nc(-n2ccnc2)ns1)Cc1ccc2c(c1)OCO2` [Example 59, 2-[[3-(Benzo[1,3]dioxol-5-ylmethyl-methyl-amino)-propyl]-(3-imidazol-1-yl-[1,2,4]thiadiazol-5-yl)-amino]-acetamide] yielded an EC50 at hiNOS of under 1000 nM. The results for the “Topical Capsaicin Allodynia” value in the assay with rat (setting [1]) and in the assay on rat (setting [2]) were “+ at 0.5 hr ((+) = >15% inhibition)” and “+ at 1 hr ((+) = >15% inhibition)”, respectively. `CN(CCc1ccc2c(c1)OCO2)CCN(C)c1nc(-n2ccnc2)ns1` [Example 128, N-(2-Benzo[1,3]dioxol-5-yl-ethyl)-N′-(3-imidazol-1-yl-[1,2,4]thiadiazol-5-yl)-N,N′-dimethyl-ethane-1,2-diamine] displayed an EC50 at hiNOS of under 1000 nM. Take `O=C(NCCc1ccc2c(c1)OCO2)[C@H]1Cc2ccccc2CN1c1nc(-n2ccnc2)ns1` [Example 129, (R)-2-(3-Imidazol-1-yl-[1,2,4]thiadiazol-5-yl)-1,2,3,4-tetrahydro-isoquinoline-3-carboxylic acid (2-benzo[1,3]dioxol-5-yl-ethyl)-amide]: at hiNOS, the EC50 was under 1000 nM. The same measure, in the same setting: as for `Cc1cc(C2CCCCN2CCN(C)Cc2ccc3c(c2)OCO3)nc(-n2ccnc2)n1` (stereo not shown) [Example 134], the figure is under 1000 nM. `CCOC(=O)CC(NCCNCc1ccc2c(c1)OCO2)c1cc(C)nc(-n2ccnc2)n1` (stereo not shown) [Example 135, Benzo[1,3]dioxol-5-ylmethyl-{2-[2-ethoxycarbonyl-1-(2-imidazol-1-yl-6-methyl-pyrimidin-4-yl)-ethylamino]-ethyl}-ammonium trifluoroacetate] returned an EC50 at hiNOS of under 1000 nM. Regarding `CNC(=O)CC(NCCNCc1ccc2c(c1)OCO2)c1cc(C)nc(-n2ccnc2)n1` (stereo not shown) [Example 136, Benzo[1,3]dioxol-5-ylmethyl-{2-[1-(2-imidazol-1-yl-6-methyl-pyrimidin-4-yl)-2-methylcarbamoyl-ethylamino]-ethyl}-ammonium trifluoroacetate], the EC50 at hiNOS was under 1000 nM. On to `CNC(=O)C1CCN(CCNCc2ccc3c(c2)OCO3)C1c1cc(C)nc(-n2ccnc2)n1` (stereo not shown) [Example 137, 2-(2-(1H-Imidazol-1-yl)-6-methylpyrimidin-4-yl)-1-(2-(benzo[d][1,3]dioxol-5-ylmethylamino)ethyl)-N-methylpyrrolidine-3-carboxamide], for which, at hiNOS, the EC50 is under 1000 nM.

In turn, `Cc1cc(C2CCC(=O)N2CCNCc2ccc3c(c2)OCO3)nc(-n2ccnc2)n1` (stereo not shown) [Example 138, 1-{2-[(Benzo[1,3]dioxol-5-ylmethyl)-amino]-ethyl}-5-(2-imidazol-1-yl-6-methyl-pyrimidin-4-yl)-pyrrolidin-2-one hydrochloride] came in with an EC50 on hiNOS of under 1000 nM.

Compound `Cc1cc(C2CCC(=O)N2CCNCc2ccc3c(c2)OCCO3)nc(-n2ccnc2)n1` (stereo not shown) [Example 139, 1-{2-[(2,3-Dihydro-benzo[1,4]dioxin-6-ylmethyl)-amino]-ethyl}-5-(2-imidazol-1-yl-6-methyl-pyrimidin-4-yl)-pyrrolidin-2-one hydrochloride] returned an EC50 on hiNOS of under 1000 nM. Take `Cc1cc(C2C(c3nccs3)CCN2CCNCc2ccc3c(c2)OCO3)nc(-n2ccnc2)n1` (stereo not shown) [Example 140, Benzo[1,3]dioxol-5-ylmethyl-{2-[2-(2-imidazol-1-yl-6-methyl-pyrimidin-4-yl)-3-thiazol-2-yl-pyrrolidin-1-yl]-ethyl}-amine]: at hiNOS, the EC50 is under 1000 nM. `CCOC(=O)c1csc(C2CCN(CCNCc3ccc4c(c3)OCO4)C2c2cc(C)nc(-n3ccnc3)n2)n1` (stereo not shown) [Example 141, 2-[1-{2-[(Benzo[1,3]dioxol-5-ylmethyl)-amino]-ethyl}-2-(2-imidazol-1-yl-6-methyl-pyrimidin-4-yl)-pyrrolidin-3-yl]-thiazole-4-carboxylic acid ethyl ester] registered an EC50 at hiNOS of under 1000 nM. In turn, `Cc1cc(C2CCCCN2CCNCc2ccc3c(c2)OCO3)nc(-n2ccnc2)n1` (stereo not shown) [Example 142, Benzo[1,3]dioxol-5-ylmethyl-{2-[2-(2-imidazol-1-yl-6-methyl-pyrimidin-4-yl)-piperidin-1-yl]-ethyl}-amine] registered an EC50 on hiNOS of under 1000 nM. `Cc1cc(C(C)(C)CNC(=O)CCc2ccc3c(c2)OCO3)nc(-n2ccnc2)n1` [Example 143, 3-Benzo[1,3]dioxol-5-yl-N-[2-(2-imidazol-1-yl-6-methyl-pyrimidin-4-yl)-2-methyl-propyl]-propionamide] gave an EC50 on hiNOS of under 1000 nM. `Cc1cc(C(C)(C)CNC(=O)NCc2ccc3c(c2)OCO3)nc(-n2ccnc2)n1` [Example 144, 1-Benzo[1,3]dioxol-5-ylmethyl-3-[2-(2-imidazol-1-yl-6-methyl-pyrimidin-4-yl)-2-methyl-propyl]-urea]: the EC50 on hiNOS is under 1000 nM. On hiNOS, `CN(CCCNCc1ccc2c(c1)OCO2)c1nc(-n2cncn2)ns1` [Example 145, N′-Benzo[1,3]dioxol-5-ylmethyl-N-methyl-N-(3-[1,2,4]triazol-1-yl-[1,2,4]thiadiazol-5-yl)-propane-1,3-diamine] had an EC50 of over 50000 nM.

(Values after US7825256B2, “Inducible nitric oxide synthase dimerization inhibitors” (Kalypsys, Inc., priority 2004, dated 2010).)
